≈ marks a conversion by molar mass, not a printed value. Read-outs that look alike come from different tables or passages of the source.
Tests used:
[1] = system: Mycobacterium tuberculosis H37Ra ITM-M006710 (ATCC 9431); test: Antimycobacterial microdilution (resazurin) vs Mtb H37Ra; assay type: cell-based; details: Middlebrook 7H9, resazurin, recalculated from µg/mL, read-out: MIC Mtb H37Ra
[2] = system: Mycobacterium tuberculosis H37Rv CNCTC My 331/88 (ATCC 27294); test: Microplate Alamar Blue assay vs Mtb H37Rv; assay type: cell-based; details: Mycobacterium tuberculosis, pH 6.6, MABA, Middlebrook 7H9 pH 6.6, recalculated from µg/mL; read-out: MIC Mtb H37Rv
[3] = system: Mycobacterium kansasii DSM 44,162 (ATCC 12478); test: Antimycobacterial microdilution (resazurin) vs M. kansasii; assay type: cell-based; details: read-out: MIC M. kansasii
[4] = system: Mycobacterium avium DSM 44,156 (ATCC 25291); test: Antimycobacterial microdilution (resazurin) vs M. avium; assay type: cell-based; details: Mycobacterium avium, Middlebrook 7H9, resazurin; read-out: MIC M. avium
[5] = system: Mycolicibacterium aurum DSM 43,999 (ATCC 23366); test: Antimycobacterial microdilution (resazurin) vs M. aurum; assay type: cell-based; details: Middlebrook 7H9, resazurin, read-out: MIC M. aurum
[6] = system: Mycolicibacterium smegmatis DSM 43,465 (ATCC 607); test: Antimycobacterial microdilution (resazurin) vs M. smegmatis; assay type: cell-based; details: Middlebrook 7H9, resazurin, read-out: MIC M. smeg.
[7] = system: Staphylococcus aureus subsp. aureus CCM 4223 (ATCC 29213); test: Antibacterial microdilution broth (EUCAST); assay type: cell-based; details: read-out: MIC Staphylococcus aureus subsp. aureus
[8] = system: methicillin-resistant Staphylococcus aureus subsp. aureus (MRSA) CCM 4750 (ATCC 43300); test: microbe, parasite or virus in culture; assay type: cell-based; details: read-out: MIC Methicillin-resistant Staphylococcus aureus subsp. aureus
[9] = system: Staphylococcus epidermidis CCM 4418 (ATCC 12228); test: Antibacterial microdilution broth (EUCAST); assay type: cell-based; details: read-out: MIC Staphylococcus epidermidis
[10] = system: Enterococcus faecalis CCM 4224 (ATCC 29212); test: Antibacterial microdilution broth (EUCAST); assay type: cell-based; details: read-out: MIC Enterococcus faecalis
[11] = system: Escherichia coli CCM 3954 (ATCC 25922); test: Antibacterial microdilution broth (EUCAST); assay type: cell-based; details: Escherichia coli, read-out: MIC Escherichia coli
[12] = system: Klebsiella pneumoniae CCM 4415 (ATCC 10031); test: Antibacterial microdilution broth (EUCAST); assay type: cell-based; details: Klebsiella pneumoniae, read-out: MIC Klebsiella pneumoniae
[13] = system: Acinetobacter baumannii DSM 30007 (ATCC 19606); test: Antibacterial microdilution broth (EUCAST); assay type: cell-based; details: read-out: MIC Acinetobacter baumannii
[14] = system: Pseudomonas aeruginosa CCM 3955 (ATCC 27853); test: Antibacterial microdilution broth (EUCAST); assay type: cell-based; details: read-out: MIC Pseudomonas aeruginosa
[15] = system: Candida albicans CCM 8320 (ATCC 24433); test: Antifungal microdilution broth (EUCAST); assay type: cell-based; details: Candida albicans, read-out: MIC Candida albicans
[16] = system: Candida krusei CCM 8271 (ATCC 6258); test: Antifungal microdilution broth (EUCAST); assay type: cell-based; details: Pichia kudriavzevii, read-out: MIC Candida krusei
[17] = system: Candida parapsilosis CCM 8260 (ATCC 22019); test: Antifungal microdilution broth (EUCAST); assay type: cell-based; details: Lodderomyces parapsilosis, read-out: MIC Candida parapsilosis
[18] = system: Candida tropicalis CCM 8264 (ATCC 750); test: Antifungal microdilution broth (EUCAST); assay type: cell-based; details: read-out: MIC Candida tropicalis
[19] = system: Aspergillus fumigatus ATCC 204305; test: Antifungal microdilution broth (EUCAST); assay type: cell-based; details: Aspergillus fumigatus, ATCC204305, read-out: MIC Aspergillus fumigatus
[20] = system: Aspergillus flavus CCM 8363; test: Antifungal microdilution broth (EUCAST); assay type: cell-based; details: Aspergillus flavus, CCM8363, read-out: MIC Aspergillus flavus
[21] = system: Lichtheimia corymbifera CCM 8077; test: Antifungal microdilution broth (EUCAST); assay type: cell-based; details: Lichtheimia corymbifera, CCM8077, read-out: MIC Lichtheimia corymbifera
[22] = system: Trichophyton interdigitale CCM 8377 (ATCC 9533); test: Antifungal microdilution broth (EUCAST); assay type: cell-based; details: Trichophyton interdigitale, read-out: MIC Trichophyton interdigitale
HepG2 cell line = test: Cytotoxicity screening, CellTiter 96 assay; details: Homo sapiens, HepG2, 24 h, read-out: IC50 HepG2

Row | SMILES | MIC [1] [µM] | MIC [2] [µM] | MIC [3] [µM] | MIC [4] [µM] | MIC [5] [µM] | MIC [6] [µM] | MIC ([8]; 24 h) [µM] | MIC ([8]; 48 h) [µM] | MIC ([9]; 24h incubation) [µM] | MIC ([9]; 48h incubation) [µM] | MIC ([10]; 24h incubation) [µM] | MIC ([10]; 48h incubation) [µM] | MIC ([11]; 24h incubation) [µM] | MIC ([11]; 48h incubation) [µM] | MIC ([12]; 24h incubation) [µM] | MIC ([12]; 48h incubation) [µM] | MIC ([13]; 24h incubation) [µM] | MIC ([13]; 48h incubation) [µM] | MIC ([14]; 24h incubation) [µM] | MIC ([14]; 48h incubation) [µM] | other results
1 | O=C(Nc1ccc2c(c1)B(O)OC2)c1ncc[nH]c1=O [Compound 8, N-(1-hydroxy-1,3-dihydrobenzo[c][1,2]oxaborol-6-yl)-3-oxo-3,4-dihydropyrazine-2-carboxamide] | 231 (≈ 62.5 µg/mL) | 92.2 (≈ 25 µg/mL) | 231 (≈ 62.5 µg/mL) | 57.6 (≈ 15.6 µg/mL) | 28.8 (≈ 7.81 µg/mL) | 28.8 (≈ 7.81 µg/mL) | 125 (≈ 33.9 µg/mL) | 125 (≈ 33.9 µg/mL) | 500 (≈ 136 µg/mL) | 500 (≈ 136 µg/mL) | > 500 | > 500 | > 500 | > 500 | > 500 | > 500 | > 500 | > 500 | > 500 | > 500 | MIC ([7]; 24 h): 125 µM (≈ 33.9 µg/mL); MIC ([7]; 48 h): 125 µM (≈ 33.9 µg/mL); MIC ([15]; 24h incubation): > 500 µM; MIC ([15]; 48h incubation): > 500 µM; MIC ([16]; 24h incubation): > 500 µM; MIC ([16]; 48h incubation): > 500 µM; MIC ([17]; 24h incubation): > 500 µM; MIC ([17]; 48h incubation): > 500 µM; MIC ([18]; 24h incubation): > 500 µM; MIC ([18]; 48h incubation): > 500 µM; MIC ([19]; 24h incubation): > 500 µM; MIC ([19]; 48h incubation): > 500 µM; MIC ([20]; 24h incubation): > 500 µM; MIC ([20]; 48h incubation): > 500 µM; MIC ([21]; 24h incubation): > 500 µM; MIC ([21]; 48h incubation): > 500 µM; MIC ([22]; 72h incubation): > 500 µM; MIC ([22]; 120h incubation): > 500 µM; melting point: 326.4 to 328.3 °C (dec.); IC50 (HepG2 cell line): > 1000 µM
2 | O=C(Nc1ccc2c(c1)B(O)OC2)c1cnc(O)cn1 [Compound 9, 5-hydroxy-N-(1-hydroxy-1,3-dihydrobenzo[c][1,2]oxaborol-6-yl)pyrazine-2-carboxamide] | 115 (≈ 31.3 µg/mL) | 184 (≈ 50 µg/mL) | 115 (≈ 31.3 µg/mL) | 231 (≈ 62.5 µg/mL) | 231 (≈ 62.5 µg/mL) | 57.6 (≈ 15.6 µg/mL) | > 500 | > 500 | > 500 | > 500 | > 500 | > 500 | > 500 | > 500 | > 500 | > 500 | > 500 | > 500 | > 500 | > 500 | MIC ([7]; 24h incubation): > 500 µM; MIC ([7]; 48h incubation): > 500 µM; MIC ([15]; 24h incubation): > 500 µM; MIC ([15]; 48h incubation): > 500 µM; MIC ([16]; 24h incubation): > 500 µM; MIC ([16]; 48h incubation): > 500 µM; MIC ([17]; 24h incubation): > 500 µM; MIC ([17]; 48h incubation): > 500 µM; MIC ([18]; 24h incubation): > 500 µM; MIC ([18]; 48h incubation): > 500 µM; MIC ([19]; 24h incubation): > 500 µM; MIC ([19]; 48h incubation): > 500 µM; MIC ([20]; 24h incubation): > 500 µM; MIC ([20]; 48h incubation): > 500 µM; MIC ([21]; 24h incubation): > 500 µM; MIC ([21]; 48h incubation): > 500 µM; MIC ([22]; 72h incubation): > 500 µM; MIC ([22]; 120h incubation): > 500 µM; melting point: 338.3 to 340.1 °C; IC50 (HepG2 cell line): > 1000 µM

Reference: publication PMC9917560, “Design, Synthesis and Antimicrobial Evaluation of New N-(1-Hydroxy-1,3-dihydrobenzo[c][1,2]oxaborol-6-yl)(hetero)aryl-2-carboxamides as Potential Inhibitors of Mycobacterial Leucyl-tRNA Synthetase” (International Journal of Molecular Sciences, 2023)
